Consider 5 molecules from patent US5900436A, “Substituted indanylidineacetylguanidines, processes for their preparation, their use as medicaments or diagnostics and medicaments containing them” (priority 1996, dated 1999).

In assay [1] the test system is rat hearts. The settings on record: isolated rat hearts, cited from earlier work.
For assay [2], the target named is T1, Na^+ /H^+ exchanger (Oryctolagus cuniculus, UniProt P23791).
T1 construct: increase the exchanger activity in the rabbit erythrocytes; endogenous in cells; host or cells: erythrocytes in blood of cholesterol-fed New Zealand albino rabbits
T1 sequence (P23791 whole entry): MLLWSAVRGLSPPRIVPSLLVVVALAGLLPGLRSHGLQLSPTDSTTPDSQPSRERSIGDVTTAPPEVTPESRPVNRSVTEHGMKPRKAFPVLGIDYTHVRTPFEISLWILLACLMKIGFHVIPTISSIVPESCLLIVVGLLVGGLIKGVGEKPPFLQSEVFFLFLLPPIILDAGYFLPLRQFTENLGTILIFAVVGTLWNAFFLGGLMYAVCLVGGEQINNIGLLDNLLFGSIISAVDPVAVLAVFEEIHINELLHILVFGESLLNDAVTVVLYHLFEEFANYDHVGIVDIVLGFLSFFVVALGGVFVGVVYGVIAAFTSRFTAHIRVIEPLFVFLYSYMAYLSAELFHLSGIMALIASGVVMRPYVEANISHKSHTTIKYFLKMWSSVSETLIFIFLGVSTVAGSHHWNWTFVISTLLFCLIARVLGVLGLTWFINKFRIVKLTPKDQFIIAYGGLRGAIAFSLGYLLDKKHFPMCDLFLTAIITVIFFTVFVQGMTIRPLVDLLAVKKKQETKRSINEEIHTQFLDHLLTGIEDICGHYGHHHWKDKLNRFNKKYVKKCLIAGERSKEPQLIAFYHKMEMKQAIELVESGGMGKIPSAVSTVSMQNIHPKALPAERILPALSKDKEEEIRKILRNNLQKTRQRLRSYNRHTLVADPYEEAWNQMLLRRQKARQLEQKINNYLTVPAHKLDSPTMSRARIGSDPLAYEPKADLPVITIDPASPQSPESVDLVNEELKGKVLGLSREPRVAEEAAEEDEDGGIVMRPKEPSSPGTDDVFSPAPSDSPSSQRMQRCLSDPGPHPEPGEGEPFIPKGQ
The assay is described as follows: Sodium-Proton exchange inhibition in rabbit erythrocytes. The format is cell-based, rabbit (Albino rabbits of New Zealand strain). The following applies: concentration necessary to reduce the erythrocyte sodium content to 50%; erythrocytes of rabbits fed 2% cholesterol diet six weeks; 37° C., 1 hour, hyperosmolar sucrose buffer with ouabain. The text has this: Sodium -Proton exchange inhibition in rabbit erythrocytes:
Albino rabbits of New Zealand strain were fed with 2% cholesterol diet for six weeks prior to collecting blood for the determination of Na^+ /H^+ exchanger activity in the erythrocytes. Hypercholesteremia has been reported to increase the exchanger activity in the rabbit erythrocytes (Scholz et al, 1990; Arteriosklerose-Neue Aspekte aus Zellbiologie und Molekulargenetik, Epidemiologie und Klinik; Assmann, G. et al, Eds, Braunschweig, Wiesbaden, Vieweg, 296-302 ). Blood samples were collected from the ear vein and hematocrit was determined. About […] of blood was incubated at 37° C. for 1 hour with hyperosmolar sucrose buffer containing 0.1 mmoles Ouabain in the presence and absence of test sample. After the incubation period, the reaction was stopped by addition of 5 ml of ice cold MgCl2 solution containing 0.1 mmole Ouabain. The erythrocytes were washed three times with 5 ml quantities of MgCl2 solution. They were hemolyzed by the addition of 4 ml of distilled water and the sodium content of the hemolyzate was determined by flame-photometry. The activity of the test compound was determined by its ability to reduce the sodium content of the erythrocyte and was expressed as IC50 which is the concentration necessary to reduce the erythrocyte sodium content to 50%.

For assay [3] the following is noted: Circulation 79, 1257-1263 (1989); cited from earlier work.

On to `CCN(c1nc(N)c(C(=O)N=C(N)N)nc1Cl)C(C)C` [ethylisopropylamiloride], for which the “potency relative to amiloride against artificially induced ventricular fibrillation” value in assay [1] is “even more potent than amiloride”.

As for `Cc1cccc2c1CCC2=CC(=O)N=C(N)N` [Compound No. 4, 4-methyl-1-indanylidineacetyl-guanidine-methanesulfonic acid], in assay [2], the concentration for half-maximal inhibition (IC50) was determined as 700 nM.

In assay [2], `COc1ccc2c(c1)C(=CC(=O)N=C(N)N)CC2` [compound 6] showed an IC50 of 660 nM.

With `N=C(N)NC(=O)c1nc(Cl)c(N)nc1N` [amiloride], the “suppression of artificially induced ventricular fibrillation” value in assay [1] (Eur. Heart J. 9 {supplement 1}: 167 (1988)) is recorded as “suppress an artificially induced ventricular fibrillation completely”. The antiarrhythmic effect entry in assay [3] was “only slight”.

As to `Cc1ccc2c(c1)CCC2=CC(=O)N=C(N)N` [compound 7], the IC50 in assay [2] was 450 nM.
